From patent publication US12435044B2, “Pyridazinone herbicides and pyridazinone intermediates used to prepare a herbicide” (FMC Corporation, priority 2018, dated 2025)

Assays:
Assay type in all cases: in vivo
[1] = system: chamomile (scentless chamomile, Matricaria inodora); experiment: Test D postemergence controlled growth environment test
Description: Seeds of plant species selected from blackgrass (Alopecurus myosuroides), galium (catchweed bedstraw, Galium aparine), kochia (Kochia scoparia), oilseed rape (Brassica napus), barley, spring (Hordeum vulgare), wheat, spring (Triticum aestivum), oat, wild (Avena fatua), barley, winter (Hordeum vulgare) and wheat, winter (Triticum aestivum) were planted into a silt loam soil and treated preemergence with test chemicals formulated in a non-phytotoxic solvent mixture which included a surfactant.
At the same time, plants selected from these crop and weed species and also bluegrass (annual bluegrass, Poa annua), canarygrass (littleseed canarygrass, Phalaris minor), chickweed (common chickweed, Stellaria media), bromegrass, downy (downy bromegrass, Bromus tectorum), field poppy (Papaver rhoeas), field violet (Viola arvensis), foxtail, green (Setaria viridis), deadnettle (henbit deadnettle, Lamium amplexicaule), ryegrass, Italian (Lolium multiflorum), lambsquarters (Chenopodium album), pigweed (Amaranthus retroflexus), chamomile (scentless chamomile, Matricaria inodora), Russian thistle (Salsola kali), speedwell (bird's-eye speedwell, Veronica persica), buckwheat, wild (Polygonum convolvulus), mustard, wild (Sinapis arvensis), radish, wild (Raphanus raphanistrum), windgrass (Apera spica-venti), geranium, cutleaf (Geranium dissectum) and Canada thistle (Cirsium arvense) were planted in pots containing Redi-Earth® planting medium (Scotts Company, 14111 Scottslawn Road, Marysville, Ohio 43041) comprising spaghnum peat moss, vermiculite, wetting agent and starter nutrients and treated with postemergence applications of the test chemicals formulated in the same manner. Plants ranged in height from 2 to 18 cm (1- to 4-leaf stage). Treated plants and controls were maintained in a controlled growth environment for 14 to 21 d after which time all species were compared to controls and visually evaluated. Plant response ratings, summarized in Table D, are based on a scale of 0 to 100 where 0 is no effect and 100 is complete control. A dash (-) response means no test result.

[2] = system: foxtail, giant (Setaria faberii); experiment: Test E pre-/postemergence greenhouse test
Description: Seeds of plant species selected from corn (Zea mays), soybean (Glycine max), velvetleaf (Abutilon theophrasti), lambsquarters (Chenopodium album), poinsettia, wild (Euphorbia heterophylla), pigweed, palmer (Amaranthus palmeri), waterhemp (common waterhemp, Amaranthus rudis), surinam grass (Brachiaria decumbens), crabgrass, large (Digitaria sanguinalis), crabgrass, Brazil (Digitaria horizontalis), panicum, fall (Panicum dichotomiflorum), foxtail, giant (Setaria faberii), foxtail, green (Setaria viridis), goosegrass (Eleusine indica), johnsongrass (Sorghum halepense), ragweed (common ragweed, Ambrosia elatior), barnyardgrass (Echinochloa crus-galli), sandbur (southern sandbur, Cenchrus echinatus), arrowleaf sida (Sida rhombifolia), ryegrass, Italian (Lolium multiflorum), dayflower, VA (Virginia (VA) dayflower, Commelina virginica), field bindweed (Convolvulus arvensis), morningglory (Ipomoea coccinea), horseweed (Conyza canadensis), kochia (Kochia scoparia), nutsedge, yellow (Cyperus esculentus) and hairy beggarticks (Bidenspilosa), were planted into a silt loam soil and treated preemergence with test chemicals formulated in a non-phytotoxic solvent mixture which included a surfactant.
At the same time, plants selected from these crop and weed species and also waterhemp_RES1, (ALS & Triazine resistant common waterhemp, Amaranthus rudis), and waterhemp_RES2, (ALS & HPPD resistant common waterhemp, Amaranthus rudis) were planted in pots containing Redi-Earth® planting medium (Scotts Company, 14111 Scottslawn Road, Marysville, Ohio 43041) comprising spaghnum peat moss, vermiculite, wetting agent and starter nutrients were treated with postemergence applications of test chemicals formulated in the same manner. Plants ranged in height from 2 to 18 cm for postemergence treatments (1- to 4-leaf stage). Treated plants and controls were maintained in a greenhouse for 14 to 21 d, after which time all species were compared to controls and visually evaluated. Plant response ratings, summarized in Table E, are based on a scale of 0 to 100 where 0 is no effect and 100 is complete control. A dash (-) response means no test result.

[3] = system: barnyardgrass (Echinochloa crus-galli); experiment: Test F flooded paddy test; settings: Flood, after 21 d
Description: (§1) Three plastic pots (ca. 16-cm diameter) per rate were partially filled with sterilized Tama silt loam soil comprising a 35:50:15 ratio of sand, silt and clay and 2.6% organic matter. Separate plantings for each of the three pots were as follows. Seeds from the U.S. of monochoria (Monochoria vaginalis), sedge, umbrella (small-flower umbrella sedge, Cyperus difformis) and redstem (purple redstem, Ammannia coccinea), were planted into one 16-cm pot for each rate. Seeds from the U.S. of rice flatsedge (Cyperus iria), sprangletop, Brdd. (bearded sprangletop, Leptochloa fascicularis), one stand of 9 or 10 water seeded rice seedlings (Rice, W. S. Jap, Oryza sativa cv. ‘Japonica-M202’ or Rice, W. S. Ind, ‘Indica’), and two stands of 3 or 4 transplanted rice seedlings (Oryza sativa cv. ‘Japonica-M202’) were planted into one 16-cm pot for each rate. Seeds from the U.S. of barnyardgrass (Echinochloa crus-galli), and late watergrass (Echinochloa oryzicola) were planted into one 16-cm pot for each rate.
(§2) Plantings were sequential so that crop and weed species were at the 2.0 to 2.5-leaf stage at time of treatment.
(§3) Potted plants were grown in a greenhouse with day/night temperature settings of 30/27° C., and supplemental balanced lighting was provided to maintain a 16-hour photoperiod. Test pots were maintained in the greenhouse until test completion.
(§4) At time of treatment, test pots were flooded to 3 cm above the soil surface, treated by application of test compounds directly to the paddy water, and then maintained at that water depth for the duration of the test. Effects of treatments on rice and weeds were visually evaluated by comparison to untreated controls after 21 d. Plant response ratings, summarized in Table F, are based on a scale of 0 to 100 where 0 is no effect and 100 is complete control. A dash (-) response means no test result.

[4] = system: late watergrass (Echinochloa oryzicola); experiment: Test F flooded paddy test; settings: Flood, after 21 d
Description: as §1, §2, §3, §4

[5] = system: monochoria (Monochoria vaginalis); experiment: Test F flooded paddy test; settings: Flood, after 21 d
Description: as §1, §2, §3, §4

[6] = system: transplanted rice seedlings (Oryza sativa cv. ‘Japonica-M202’); experiment: Test F flooded paddy test; settings: Flood, after 21 d
Description: as §1, §2, §3, §4

[7] = system: water seeded rice seedlings (Rice, W. S. Jap, Oryza sativa cv. ‘Japonica-M202’ or Rice, W. S. Ind, ‘Indica’); experiment: Test F flooded paddy test; settings: Flood, after 21 d
Description: as §1, §2, §3, §4

SMILES | Plant response rating, Chamomile ([1]; 16 g ai/ha) | Plant response rating, Chamomile ([1]; 31 g ai/ha) | Plant response rating, Chamomile ([1]; 62 g ai/ha) | Plant response rating, Chamomile ([1]; 125 g ai/ha) | Plant response rating, Foxtail, Giant ([2]; Preemergence, 16 g ai/ha) | Plant response rating, Foxtail, Giant ([2]; Preemergence, 31 g ai/ha) | Plant response rating, Foxtail, Giant ([2]; Preemergence, 62 g ai/ha) | Plant response rating, Foxtail, Giant ([2]; Preemergence, 125 g ai/ha) | Plant response rating (0 to 100 scale) ([3]; 125 g ai/ha) | Plant response rating (0 to 100 scale) ([4]; 125 g ai/ha) | Plant response rating (0 to 100 scale) ([5]; 125 g ai/ha) | Plant response rating (0 to 100 scale) ([6]; 125 g ai/ha) | Plant response rating (0 to 100 scale) ([7]; 125 g ai/ha) | other results
Cc1ccc2ccc(C)c(-c3c(O)c(Cl)nn(C)c3=O)c2c1 [Cpd. No. 20, 6-chloro-4-(2,7-dimethyl-1-naphthalenyl)-5-hydroxy-2-methyl-3(2H)-pyridazinone] | 95 | 98 | 100 | 100 | 10 | 60 | 90 | 98 | 43 | 50 | 95 | 0 | 5 | Plant response rating (0 to 100 scale) ([3]; 31 g ai/ha): 0; Plant response rating (0 to 100 scale) ([3]; 62 g ai/ha): 0; Plant response rating (0 to 100 scale) ([3]; 250 g ai/ha): 65; Plant response rating (0 to 100 scale) ([4]; 31 g ai/ha): 0; Plant response rating (0 to 100 scale) ([4]; 62 g ai/ha): 35; Plant response rating (0 to 100 scale) ([4]; 250 g ai/ha): 73; Plant response rating (0 to 100 scale) ([5]; 31 g ai/ha): 10; Plant response rating (0 to 100 scale) ([5]; 62 g ai/ha): 90; Plant response rating (0 to 100 scale) ([5]; 250 g ai/ha): 99; Plant response rating (0 to 100 scale) ([6]; 31 g ai/ha): 0; Plant response rating (0 to 100 scale) ([6]; 62 g ai/ha): 0; Plant response rating (0 to 100 scale) ([6]; 250 g ai/ha): 0; Plant response rating (0 to 100 scale) ([7]; 31 g ai/ha): 0; Plant response rating (0 to 100 scale) ([7]; 62 g ai/ha): 0; Plant response rating (0 to 100 scale) ([7]; 250 g ai/ha): 23
Cc1cc(Cl)c2ccccc2c1-c1c(O)c(Cl)nn(C)c1=O [Cpd. No. 65] | 99 | 100 | 100 | 100 | 5 | 78 | 90 | 100 | 60 | 55 | 100 | 15 | 0 | Plant response rating, Foxtail, Giant ([2]; Postemergence, 16 g ai/ha): 70; Plant response rating, Foxtail, Giant ([2]; Postemergence, 31 g ai/ha): 88; Plant response rating, Foxtail, Giant ([2]; Postemergence, 62 g ai/ha): 90; Plant response rating, Foxtail, Giant ([2]; Postemergence, 125 g ai/ha): 95; Plant response rating (0 to 100 scale) ([3]; 64 g ai/ha): 10; Plant response rating (0 to 100 scale) ([4]; 64 g ai/ha): 20; Plant response rating (0 to 100 scale) ([5]; 64 g ai/ha): 100; Plant response rating (0 to 100 scale) ([6]; 64 g ai/ha): 0; Plant response rating (0 to 100 scale) ([7]; 64 g ai/ha): 0
